From BindingDB's records for doi:10.1016/j.bmcl.2009.04.147 (Banyu Pharmaceutical, 2009)

Target: Melanin-concentrating hormone receptor 1 (Homo sapiens, UniProt Q99705)
Assay: Radioligand Binding Assay (IC50) and Functional Assay (EC50/IC50)
Settings: pH 7.4; 22 °C
Description: Compounds were evaluated for their binding affinity to the membranes of CHO-K1 cells expressing human MCH1R (hMCH1R) in a competition binding assay with [125I]-MCH as the radioligand. After incubation, the membranes were filtrated onto GF/C filter plates and dried. The radioactivity was counted using a microplate scintillation counter (TopCount, PerkinElmer). Non-specific binding was determined by including 1 uM unlabeled MCH in the binding reaction. Antagonistic activity (EC50/IC50) was estimated by the inhibitory effect of compounds on intracellular calcium mobilization induced by MCH using a FLIPR in CHO-K1 cells expressing human MCH1R. The cells were treated with the test compounds for 5 min before addition of MCH.

Sequence of Melanin-concentrating hormone receptor 1 (Q99705 as listed by the source): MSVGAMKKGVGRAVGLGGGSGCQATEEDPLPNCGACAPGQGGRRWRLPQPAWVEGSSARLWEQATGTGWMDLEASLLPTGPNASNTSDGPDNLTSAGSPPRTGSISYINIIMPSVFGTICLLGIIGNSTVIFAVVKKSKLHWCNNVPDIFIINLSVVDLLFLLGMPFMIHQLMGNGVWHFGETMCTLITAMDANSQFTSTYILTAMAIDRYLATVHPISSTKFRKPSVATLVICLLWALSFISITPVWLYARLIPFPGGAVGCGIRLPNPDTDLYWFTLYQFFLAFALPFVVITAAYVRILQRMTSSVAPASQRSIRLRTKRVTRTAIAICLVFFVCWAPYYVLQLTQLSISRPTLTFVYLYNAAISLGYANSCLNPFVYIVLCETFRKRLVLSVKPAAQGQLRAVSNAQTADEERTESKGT

IC50 [nM]	SMILES
21	CC(C)N(C)c1nc2ccc(NC(=O)CCc3ccc(C(F)(F)F)cc3)cc2[nH]1 [2-aminobenzimidazole-based compound, 8]
22	CN(c1nc2ccc(NC(=O)CCc3ccc(C(F)(F)F)cc3)cc2[nH]1)C1CCCC1 [2-aminobenzimidazole-based compound, 12]
27	CN(c1nc2ccc(NC(=O)CCc3ccc(C(F)(F)F)cc3)cc2[nH]1)C1CCCCC1 [2-aminobenzimidazole-based compound, 13]
